Experimental data reported in patent publication US20260083693A1, “PHARMACEUTICAL COMPOSITION FOR THE ACUTE TREATMENT OF MIGRAINE AND OTHER FORMS OF HEADACHE” (priority 2024, published 2026).
Read-outs that look alike come from different tables or passages of the source.

Columns and labels:
[1] = cited from earlier work
[2] = topical sustained release composition, at three hours; cited from earlier work
[3] = Pharmacokinetic (bioavailability) study of ibuprofen + ketoprofen nasal spray in healthy adult human subjects, plasma by LC-MS/MS
Method: Pharmacokinetic study to evaluate the bioavailability of the pharmaceutical composition prepared according to the present disclosure.
Blood samples were centrifuged at about 4000 rpm for 10 minutes at 4±2° C. to separate the plasma. The resulting plasma was equally transferred into 2. These aliquots were stored frozen, upright in a freezer within 90 minutes of blood collection time of each sample at a temperature of −70° C. […] until they were analyzed.
Sample values below the LLOQ were reported as Below Quantification Limit (BQL). Pharmacokinetic parameters were calculated using Phoenix® WinNonlin® software (version: 8.3). The following parameters were calculated:
Primary pharmacokinetic parameters: Cmax, AUC0-t and AUC0-∞ Secondary pharmacokinetic parameters: tmax, t1/2, Kel and AUC_% Extrap_obs.

Row | Structure (SMILES) | peak plasma concentration ([1]; oral ketoprofen, dose 50 mg) | time of peak plasma concentration ([1]; oral ketoprofen, dose 50 mg) | peak plasma concentration of ketoprofen [2] | AUC(0-inf) ([3]; human, in vivo, inhaled or intranasal, AUC0-∞ range over the dose range of the composition, intranasal, dosage unit 0.4-8 mg ibuprofen and 0.025-0.48 mg ketoprofen) | Cmax ([3]; human, in vivo, inhaled or intranasal, plasma Cmax range over the dose range of the composition, intranasal, dosage unit 0.4-8 mg ibuprofen and 0.025-0.48 mg ketoprofen) | Cmax ([3]; human, in vivo, inhaled or intranasal, plasma Cmax, intranasal, 8 sprays (100 μL each), printed as equivalent to 1.816 mg ibuprofen and 0.24 mg ketoprofen) | Cmax lower than expected Cmax of minimum approved oral dose ([3]; intranasal 8 sprays vs oral 200 mg ibuprofen / 12.5 mg ketoprofen) | expected Cmax for the minimum approved oral dose ([1]; oral ibuprofen 200 mg, as reported in the literature) | maximum plasma concentration ([1]; oral ibuprofen, 400 mg) | time of maximum plasma concentration ([1]; oral ibuprofen, 400 mg) | peak plasma concentration ([1]; oral ibuprofen, dose 100 mg) | time of peak plasma concentration ([1]; oral ibuprofen, dose 100 mg)
1 | CC(C(=O)O)c1cccc(C(=O)c2ccccc2)c1 (stereo not drawn) [ketoprofen] | 2.6 µg/mL | 134 min | at most 450 ng/ml |  |  |  |  |  |  |  |  | 
2 | CC(C)Cc1ccc(C(C)C(=O)O)cc1 (stereo not drawn) [ibuprofen] |  |  |  | 133 to 1920 ng·h/mL | 41.4 to 828 ng/mL | 165 ng/mL | approximately 100 times | approximately 17.3 μg/mL | 32.8 µg/mL | 90 min | 9.5 µg/mL | 116 min
